BigSolDB 2.1

CCCCCCCCCCCC(=O)O
solubility (mole fraction)
Details | in ethanol | in isobutanol | in isopentanol | in methanol | in n-butanol | in n-hexanol | in n-pentanol | in n-propanol
276.17 K | 0.0422 | 0.0659 | 0.0814 | 0.0318 | 0.0646 | 0.0827 | 0.0742 | 0.054
279.16 K | 0.0554 | 0.0817 | 0.1 | 0.0419 | 0.0801 | 0.0991 | 0.0907 | 0.0685
282.16 K | 0.0739 | 0.102 | 0.122 | 0.0555 | 0.0999 | 0.122 | 0.113 | 0.0859
285.15 K | 0.0924 | 0.128 | 0.15 | 0.0723 | 0.123 | 0.151 | 0.137 | 0.108
288.15 K | 0.119 | 0.158 | 0.179 | 0.0942 | 0.151 | 0.183 | 0.167 | 0.135
291.14 K | 0.151 | 0.195 | 0.217 | 0.123 | 0.188 | 0.22 | 0.204 | 0.169
294.14 K | 0.194 | 0.238 | 0.263 | 0.161 | 0.229 | 0.266 | 0.247 | 0.21
297.13 K | 0.244 | 0.289 | 0.315 | 0.208 | 0.283 | 0.322 | 0.301 | 0.261
300.13 K | 0.305 | 0.351 | 0.376 | 0.264 | 0.338 | 0.39 | 0.368 | 0.319
303.12 K | 0.386 | 0.422 | 0.446 | 0.341 | 0.418 | 0.464 | 0.435 | 0.399
306.12 K | 0.482 | 0.514 | 0.537 | 0.433 | 0.51 | 0.549 | 0.53 | 0.488
